We go through 20 compounds from US20240308995A1, “O-GLYCOPROTEIN-2-ACETAMIDO-2-DEOXY-3-D-GLUCOPYRANOSIDASE INHIBITORS” (BIOGEN MA INC., priority 2018, published 2024).

SMILES strings stand for the structures.

Series [1] is described as follows: Rat Liver Microsome Stability Assay. In kind it is in vitro ADME. As to conditions: rat liver microsomes, 1 uM compound.
Series [2] has as its target Recombinant full length human OGA enzyme (Homo sapiens (Human), UniProt O60502). As to the kind of experiment: OGA Enzyme Inhibition Biochemical Assay. As to conditions: 1 nM OGA, 100 μM 4-MUGlcNAc, pH 6.4. Put shortly:
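Full-length recombinant human OGA with fluorogenic 4-MUGlcNAc in McIlvaine buffer pH 6.4, 0.01% BSA; 90 min at room temperature, glycine pH 10 quench, fluorescence Ex 355/Em 460 nm. 10-point, 4-fold dilution from 20 μM; 4-parameter variable-slope fit.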

In series [3] the target is OGA (S400 O-GLCNAC), HEK-293T cells transfected with Tau-V5 (Homo sapiens (Human), UniProt O60502). As to the kind of experiment: Cellular OGA-Tau MSD Assay. In kind it is cell-based. The settings on record: HEK-293T cells, Tau-S400-GlcNAc MSD readout. Put shortly: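 HEK-293T cells transfected with OGA and Tau-V5 plasmids were treated overnight at 37° C with a 10-point, 3-fold titration from 1 uM. Lysates went onto V5-antibody MSD plates to capture Tau, probed with a Tau O-GlcNAc antibody and read by electrochemiluminescence; IC50 from a 4-parameter fit.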
Sequence of OGA (S400 O-GLCNAC), HEK-293T cells transfected with Tau-V5 (O60502 whole entry): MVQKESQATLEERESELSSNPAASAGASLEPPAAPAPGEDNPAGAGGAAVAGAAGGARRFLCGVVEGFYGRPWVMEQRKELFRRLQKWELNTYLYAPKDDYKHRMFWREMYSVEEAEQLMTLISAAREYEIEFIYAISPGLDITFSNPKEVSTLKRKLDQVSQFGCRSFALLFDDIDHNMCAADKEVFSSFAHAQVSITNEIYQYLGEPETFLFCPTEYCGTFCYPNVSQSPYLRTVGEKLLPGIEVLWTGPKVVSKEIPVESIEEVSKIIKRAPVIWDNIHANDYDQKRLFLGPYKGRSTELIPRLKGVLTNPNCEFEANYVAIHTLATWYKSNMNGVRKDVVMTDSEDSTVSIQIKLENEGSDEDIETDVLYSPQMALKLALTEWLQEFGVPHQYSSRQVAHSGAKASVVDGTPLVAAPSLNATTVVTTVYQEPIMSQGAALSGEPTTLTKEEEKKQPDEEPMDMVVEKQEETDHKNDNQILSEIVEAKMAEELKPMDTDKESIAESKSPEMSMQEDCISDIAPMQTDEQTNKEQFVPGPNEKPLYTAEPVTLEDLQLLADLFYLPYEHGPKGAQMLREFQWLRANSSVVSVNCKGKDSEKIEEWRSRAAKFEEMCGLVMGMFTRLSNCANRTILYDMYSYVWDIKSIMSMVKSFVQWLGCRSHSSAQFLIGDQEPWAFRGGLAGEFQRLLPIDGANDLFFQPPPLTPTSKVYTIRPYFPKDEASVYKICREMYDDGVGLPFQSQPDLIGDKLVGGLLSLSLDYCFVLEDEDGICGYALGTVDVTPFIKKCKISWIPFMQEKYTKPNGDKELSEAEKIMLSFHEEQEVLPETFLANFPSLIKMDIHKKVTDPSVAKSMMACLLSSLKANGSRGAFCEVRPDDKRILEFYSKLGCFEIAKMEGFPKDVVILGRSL

The test system of another series is P-gp (MDR1). As to the kind of experiment: MDR1-MDCK Efflux Ratio Assay. It counts as in vitro ADME. The settings on record: dog, MDCK-MDR1, pH 7.4, MDR1-MDCK cells, 2 hr, pH 7.4; read-out: MDR1-MDCK Efflux Ratio (B-A/A-B). In outline: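 Bidirectional (apical↔basolateral) transport across confluent MDR1-MDCK monolayers in HBSS/10 mM HEPES pH 7.4, receiver buffer with 1% BSA; 2 hr at 37° C, 5% CO2. Donor sampled at 0 and 120 min, receiver at 120 min, quantified by LC-MS/MS in triplicate. Papp, efflux ratio and percent recovery calculated.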

Sequence of Recombinant full length human OGA enzyme (O60502 whole entry): as above

The IC50 is the concentration that inhibits the measured activity by half. Turning to `CC(=O)Nc1nc(F)c(CN2C[C@H](Oc3cc(Cl)ccn3)C[C@@H]2C)s1` [Example 1-101, N-(5-(((2S,4R)-4-((4-chloropyridin-2-yl)oxy)-2-methylpyrrolidin-1-yl)methyl)-4-fluorothiazol-2-yl)acetamide], in series [1], the “RLM % Qh (%)” value stood at 88%. Moreover, the IC50 in series [2] is < 1 nM; in series [3] it was 3 nM. In the series with P-gp (MDR1), the efflux ratio at 2 h worked out at 1.5.

On to `CC(=O)Nc1nc(F)c(CN2C[C@H](Oc3cc(F)c(F)cn3)C[C@@H]2C)s1` [Example 1-102, N-(5-(((2S,4R)-4-((4,5-difluoropyridin-2-yl)oxy)-2-methylpyrrolidin-1-yl)methyl)-4-fluorothiazol-2-yl)acetamide], for which, in series [1], the “RLM % Qh (%)” value is 82%. Further, the figures for the IC50 in series [2] and in series [3] were < 1 nM and 2 nM, respectively. Also, the efflux ratio at 2 h with P-gp (MDR1) was 1.2.

`CC(=O)Nc1nc(F)c(CN2C[C@H](Oc3cc(N4CCOCC4)ncn3)C[C@@H]2C)s1` [Example 1-103, N-(4-fluoro-5-(((2S,4R)-2-methyl-4-((6-morpholinopyrimidin-4-yl)oxy)pyrrolidin-1-yl)methyl)thiazol-2-yl)acetamide]: the “RLM % Qh (%)” value in series [1] is reported as 45%. The IC50 in series [2] was < 1 nM; in series [3], 3 nM. Further, the efflux ratio at 2 h with P-gp (MDR1) came to 15.9.

For `CC(=O)Nc1ncc(CN2C[C@H](Oc3ccnc(C)n3)C[C@@H]2C)s1` [Example 1-104, N-(5-(((2S,4R)-2-methyl-4-((2-methylpyrimidin-4-yl)oxy)pyrrolidin-1-yl)methyl)thiazol-2-yl)acetamide], the “RLM % Qh (%)” value in series [1] was determined as 30%. The IC50 in series [2] is < 1 nM; in series [3], 2 nM. Besides, the efflux ratio at 2 h in the series with P-gp (MDR1) came out at 16.

Turning to `COc1cnc(O[C@@H]2C[C@H](C)N(Cc3sc(NC(C)=O)nc3F)C2)cn1` [Example 1-105, N-(4-fluoro-5-(((2S,4R)-4-((5-methoxypyrazin-2-yl)oxy)-2-methylpyrrolidin-1-yl)methyl)thiazol-2-yl)acetamide], in series [1], the “RLM % Qh (%)” value was 74%. Moreover, the IC50 is < 1 nM in series [2] and 2 nM in series [3]. Further, the efflux ratio at 2 h in the series with P-gp (MDR1) was 2.4.

With `CC(=O)Nc1nc(F)c(CN2C[C@H](Oc3cnc(C)cn3)C[C@@H]2C)s1` [Example 1-108, N-(4-fluoro-5-(((2S,4R)-2-methyl-4-((5-methylpyrazin-2-yl)oxy)pyrrolidin-1-yl)methyl)thiazol-2-yl)acetamide], in series [1], the “RLM % Qh (%)” value is reported as 79%. Besides, the results for the IC50 in series [2] and in series [3] were < 1 nM and 2 nM, respectively. In addition, in the series on P-gp (MDR1), the efflux ratio at 2 h was 3.4.

For the compound `CC(=O)Nc1nc(F)c(CN2C[C@H](Oc3cc(O)ncn3)C[C@@H]2C)s1` [Example 1-109, N-(4-fluoro-5-(((2S,4R)-4-((6-hydroxypyrimidin-4-yl)oxy)-2-methylpyrrolidin-1-yl)methyl)thiazol-2-yl)acetamide], the “RLM % Qh (%)” value in series [1] amounted to 16%. Moreover, the IC50 is < 1 nM in series [2] and 8 nM in series [3]. Moreover, in the series on P-gp (MDR1), the efflux ratio at 2 h is 12.7.

Consider `CC(=O)Nc1nc(F)c(CN2C[C@H](Oc3ccnc(C)c3)C[C@@H]2C)s1` [Example 1-110, N-(4-fluoro-5-(((2S,4R)-2-methyl-4-((2-methylpyridin-4-yl)oxy)pyrrolidin-1-yl)methyl)thiazol-2-yl)acetamide], for which, in series [1], the “RLM % Qh (%)” value turned out to be 39%. Also, the IC50 in series [2] was < 1 nM; in series [3], 1 nM. Further, the efflux ratio at 2 h in the series on P-gp (MDR1) was found to be 34.4.

On to `CC(=O)Nc1nc(F)c(CN2C[C@H](Oc3ncc(F)cn3)C[C@@H]2C)s1` [Example 1-112, N-(4-fluoro-5-(((2S,4R)-4-((5-fluoropyrimidin-2-yl)oxy)-2-methylpyrrolidin-1-yl)methyl)thiazol-2-yl)acetamide], for which, in series [1], the “RLM % Qh (%)” value came out at 45%. The half-maximal inhibitory concentration (IC50) was < 1 nM in series [2] and 1 nM in series [3]. For the same compound, the efflux ratio at 2 h in the series on P-gp (MDR1) came out at 5.3.

Take `CC(=O)Nc1nc(F)c(CN2C[C@H](Oc3cnc(C(F)F)cn3)C[C@@H]2C)s1` [Example 1-113, N-(5-(((2S,4R)-4-((5-(difluoromethyl)pyrazin-2-yl)oxy)-2-methylpyrrolidin-1-yl)methyl)-4-fluorothiazol-2-yl)acetamide]: in series [1], the “RLM % Qh (%)” value is listed as 61%. The IC50 in series [2] was 2.1 nM; in series [3], 5 nM. For the same compound, the efflux ratio at 2 h in the series with P-gp (MDR1) was 2.1.

As for `COc1ccc(O[C@@H]2C[C@H](C)N(Cc3sc(NC(C)=O)nc3F)C2)cn1` [Example 1-114, N-(4-fluoro-5-(((2S,4R)-4-((6-methoxypyridin-3-yl)oxy)-2-methylpyrrolidin-1-yl)methyl)thiazol-2-yl)acetamide], the “RLM % Qh (%)” value in series [1] is 69%. In addition, the figures for the IC50 in series [2] and in series [3] were < 1 nM and 2 nM, respectively. For the same compound, the efflux ratio at 2 h in the series on P-gp (MDR1) came to 1.9.

Take `CC(=O)Nc1ncc(CN2C[C@H](Oc3ccc(F)nc3)C[C@@H]2C)s1` [Example 1-115, N-(5-(((2S,4R)-4-((6-fluoropyridin-3-yl)oxy)-2-methylpyrrolidin-1-yl)methyl)thiazol-2-yl)acetamide]: the “RLM % Qh (%)” value in series [1] is recorded as 54%. The IC50 in series [2] was < 1 nM; in series [3] it was 2 nM. Also, in the series with P-gp (MDR1), the efflux ratio at 2 h came to 4.7.

For `COc1cc(O[C@@H]2C[C@H](C)N(Cc3sc(NC(C)=O)nc3F)C2)ncc1F` [Example 1-118, N-(4-fluoro-5-(((2S,4R)-4-((5-fluoro-4-methoxypyridin-2-yl)oxy)-2-methylpyrrolidin-1-yl)methyl)thiazol-2-yl)acetamide], the “RLM % Qh (%)” value in series [1] is 85%. For the same compound, the figures for the 50% inhibitory concentration (IC50) in series [2] and in series [3] were < 1 nM and 1 nM, respectively. In addition, the efflux ratio at 2 h in the series on P-gp (MDR1) is 3.5.

Turning to `CC(=O)Nc1nc(F)c(CN2C[C@H](Oc3cncnc3)C[C@@H]2C)s1` [Example 1-119, N-(4-fluoro-5-(((2S,4R)-2-methyl-4-(pyrimidin-5-yloxy)pyrrolidin-1-yl)methyl)thiazol-2-yl)acetamide], the “RLM % Qh (%)” value in series [1] worked out at 50%. Moreover, the IC50 in series [2] was 1.3 nM; in series [3] it was 19 nM. The efflux ratio at 2 h in the series on P-gp (MDR1) was 6.3.

With `CO[C@H]1C[C@H](Oc2cc(O[C@@H]3C[C@H](C)N(Cc4cnc(NC(C)=O)s4)C3)ncn2)C1` [Example 1-120, N-(5-(((2S,4R)-4-((6-((1r,3R)-3-methoxycyclobutoxy)pyrimidin-4-yl)oxy)-2-methylpyrrolidin-1-yl)methyl)thiazol-2-yl)acetamide], in series [1], the “RLM % Qh (%)” value came out at 64%. In addition, the IC50 in series [2] was < 1 nM; in series [3] it was 2 nM. In addition, the efflux ratio at 2 h with P-gp (MDR1) came out at 10.3.

`COCCOc1cc(O[C@@H]2C[C@H](C)N(Cc3cnc(NC(C)=O)s3)C2)ncn1` [Example 1-122, N-(5-(((2S,4R)-4-((6-(2-methoxyethoxy)pyrimidin-4-yl)oxy)-2-methylpyrrolidin-1-yl)methyl)thiazol-2-yl)acetamide]: in series [1], the “RLM % Qh (%)” value was found to be 32%. Moreover, the IC50 in series [2] was < 1 nM; in series [3] it was 3 nM. Further, in the series on P-gp (MDR1), the efflux ratio at 2 h is 2.1.

As to `CO[C@H]1C[C@@H](Oc2cc(O[C@@H]3C[C@H](C)N(Cc4cnc(NC(C)=O)s4)C3)ncn2)C1` [Example 1-123, N-(5-(((2S,4R)-4-((6-((1s,3S)-3-methoxycyclobutoxy)pyrimidin-4-yl)oxy)-2-methylpyrrolidin-1-yl)methyl)thiazol-2-yl)acetamide], the “RLM % Qh (%)” value in series [1] amounted to 55%. Besides, the IC50 in series [2] came to 1.1 nM; in series [3], 5 nM. In addition, the efflux ratio at 2 h in the series on P-gp (MDR1) came to 5.7.

With `CC(=O)Nc1ncc(CN2C[C@H](Oc3cc(OC4COC4)ncn3)C[C@@H]2C)s1` [Example 1-124, N-(5-(((2S,4R)-2-methyl-4-((6-(oxetan-3-yloxy)pyrimidin-4-yl)oxy)pyrrolidin-1-yl)methyl)thiazol-2-yl)acetamide], the “RLM % Qh (%)” value in series [1] was determined as 16%. The IC50 was < 1 nM in series [2] and 3 nM in series [3]. For the same compound, the efflux ratio at 2 h in the series on P-gp (MDR1) was 11.2.

`CCOc1cc(O[C@@H]2C[C@H](C)N(Cc3cnc(NC(C)=O)s3)C2)ncn1` [Example 1-126, N-(5-(((2S,4R)-4-((6-ethoxypyrimidin-4-yl)oxy)-2-methylpyrrolidin-1-yl)methyl)thiazol-2-yl)acetamide]: in series [1], the “RLM % Qh (%)” value was 48%. Besides, the concentration for half-maximal inhibition (IC50) in series [2] is < 1 nM; in series [3] it was 2 nM. Moreover, the efflux ratio at 2 h with P-gp (MDR1) came to 3.8.

Turning to `CC(=O)Nc1ncc(CN2C[C@H](Oc3cc(OC(C)C)ncn3)C[C@@H]2C)s1` [Example 1-127, N-(5-(((2S,4R)-4-((6-isopropoxypyrimidin-4-yl)oxy)-2-methylpyrrolidin-1-yl)methyl)thiazol-2-yl)acetamide], the “RLM % Qh (%)” value in series [1] amounted to 62%. In addition, the IC50 in series [2] was 1.9 nM; in series [3], 8 nM. The efflux ratio at 2 h in the series with P-gp (MDR1) came out at 3.1.
